Data on 18 compounds can be found in patent publication US20100130736A1, “METHODS OF CREATING AN INDEX” (priority 2008, published 2010).

Where no end group is shown, it is not given here.

The first assay deals with A549 cells. Briefly: Epic DMR agonist mode (primary profile, target panning) in A549 cells. Format: cell-based, human.
Conditions: not given
The source says: Epic® wavelength interrogation system (Corning Inc., Corning, N.Y.) was used for whole cell sensing. This system consists of a temperature-control unit, an optical detection unit, and an on-board liquid handling unit with robotics. The detection unit is centered on integrated fiber optics, and enables kinetic measures of cellular responses with a time interval of ±15 sec.
For biosensor cellular assays, molecule solutions were made by diluting the stored concentrated solutions with the HBSS (1× Hanks balanced salt solution, plus 20 mM Hepes, pH 7.1), and transferred into a 384 well polypropylene molecule storage plate to prepare a molecule source plate. Both molecule and marker source plates were made separately when a two-step assay was performed. In parallel, the cells were washed twice with the HBSS and maintained in 30 μl of the HBSS to prepare a cell assay plate. Both the cell assay plate and the molecule and marker source plate(s) were then incubated in the hotel of the reader system. After ˜1 hr of incubation the baseline wavelengths of all biosensors in the cell assay microplate were recorded and normalized to zero. Afterwards, a 2 to 10 minute continuous recording was carried out to establish a baseline, and to ensure that the cells reached a steady state. Cellular responses were then triggered by pipetting 10 μl of the marker solutions into the cell assay plate using the on-board liquid handler.
First, a panel of ligands targeting GPCRs, each at 10 μM concentration, was chosen, and examined their actions on the A549 cells using DMR measurements with the Epic® system. The ligand panel included the four P2Y agonists ADP, […], UTP and UDP, the adenosine receptor agonist adenosine, the calcium sensing receptor agonist spermine, the histamine receptor agonist histamine, the adrenergic receptor agonist epinephrine, the free fatty acid receptor agonist elaidic acid, the lipoxin receptor agonist lipoxin A4, the bradykinin receptor agonist bradykinin, the adrenodullin receptor agonist adrenodullin, the PAR1 agonist SFLLR-amide, the angiotensin receptor agonist angiotensin, the neuropeptide Y receptor agonist neuropeptide Y, and the PAR2 agonist SLIGKV-amide.
Next, a second ligand panel was chosen, and examined their actions on the A549 cells using DMR measures with the Epic® system. The panel included the protein kinase C activator PMA, the endogenous KATP ion channel activator pinacidil, the adenylyl cyclase activator forskolin, and endogenous Toll-like receptor (TLR) activator poly(I:C).
A DMR index was generated for four ligand molecules. Quiescent A431 and proliferating A549 cells were separately exposed to the ligand molecules for about 1 hr to generate their primary profiles, followed by stimulation with each marker at a fixed concentration (as mentioned in FIGS. 7 and 8) for another 1 hr or so to generate secondary profiles of the molecule against the panels of markers in both types of cells. Next, one or more specific DMR parameters were chosen as a readout for plotting the DMR index of the molecule. For the pinacidil DMR response in A549, the amplitude of the N-DMR (i.e., the amplitude 30 min after stimulation) was chosen. For the poly(I:C) DMR response in A549, the amplitude of the late DMR (i.e., the amplitude 50 min after stimulation) was chosen. For the PMA response in A549, the late DMR amplitude (i.e., the amplitude 50 min after stimulation) was chosen. For the SLIGKV-amide DMR response in A549, the P-DMR amplitude (i.e., the amplitude 20 min after stimulation) was chosen. For the forskolin response in A549 cells, the P-DMR amplitude (i.e., the amplitude 50 min after stimulation) was chosen. For the histamine response in A549, both the early DMR amplitude (i.e., amplitude 10 min after stimulation) and the late response (i.e., the amplitude 30 min after stimulation) were chosen. For the epinephrine response in A431, the P-DMR amplitude (i.e., the amplitude 50 min after stimulation) was chosen.
As for `CNC[C@H](O)c1ccc(O)c(O)c1` [epinephrine], the “ligand-induced DMR signal (GPCR ligand panel)” value is reported as “robust DMR signals”.

The assay is the same for the next values; noted with them: A549; FIG. 8: 40 μM pinacidil, 250 μg/ml poly (I:C), 8 μM PMA, 16 μM forskolin.
Take `CCCCCCCCCCCCCC(=O)O[C@@H]1[C@@H](C)[C@@]2(O)[C@@H](C=C(CO)C[C@]3(O)C(=O)C(C)=C[C@@H]23)[C@@H]2C(C)(C)[C@]12OC(C)=O` [PMA, Phorbol 12-myristate 13-acetate]: the “ligand-induced DMR signal (second ligand panel)” value is “robust DMR signals”.
The same measure, in the same setting: under `CC(N/C(=N\C#N)Nc1ccncc1)C(C)(C)C` (stereo not drawn) [pinacidil] stands “robust DMR signals”.
The same measure, in the same setting: then poly(I:C), with “robust DMR signals”.

The assay is the same for the next values; noted with them: A549; each ligand at 10 μM; FIGS. 3A and 3B.
In the case of `O=c1ccn([C@@H]2O[C@H](COP(=O)(O)OP(=O)(O)OP(=O)(O)O)[C@@H](O)[C@H]2O)c(=O)[nH]1` [UTP], the “ligand-induced DMR signal (GPCR ligand panel)” value was “robust DMR signals”.
As to `Nc1ncnc2c1ncn2[C@@H]1O[C@H](CO)[C@@H](O)[C@H]1O` [adenosine], the “ligand-induced DMR signal (GPCR ligand panel)” value is listed as “robust DMR signals”.
On the same count and under the same terms, under `Nc1ncnc2c1ncn2[C@@H]1O[C@H](COP(=O)(O)OP(=O)(O)O)[C@@H](O)[C@H]1O` [ADP] stands “robust DMR signals”.
As for SFLLR-amide, the “ligand-induced DMR signal (GPCR ligand panel)” value is “robust DMR signals”.
The same measure, in the same setting: under `CCCCC[C@H](O)/C=C/C=C\C=C\C=C\[C@@H](O)[C@@H](O)CCCC(=O)O` [lipoxin A4] stands “robust DMR signals”.
Turning to `Nc1ncnc2c1ncn2[C@@H]1O[C@H](COP(=O)(O)OP(=O)(O)OP(=O)(O)O)[C@@H](O)[C@H]1O` [AT], the “ligand-induced DMR signal (GPCR ligand panel)” value was “robust DMR signals”.
Same read-out and setting: then `NCCCNCCCCNCCCN` [spermine], with “robust DMR signals”; and angiotensin, with “robust DMR signals”; and “adrenodullin: adrenodullin receptor agonist (YRQSMNNFQGLRSFGCRFGTCTVQKLAHQIYQFTDKDKDNVAPRSKISPQGY; ends and bridges not checked; cysteine pairing not given here; UniProt P35318 95-146, looked up)”, with “robust DMR signals”.
For SLIGKV-NH2, the “ligand-induced DMR signal (GPCR ligand panel)” value is reported as “robust DMR signals”.
In the case of `O=c1ccn([C@@H]2O[C@H](COP(=O)(O)OP(=O)(O)O)[C@@H](O)[C@H]2O)c(=O)[nH]1` [UDP], the “ligand-induced DMR signal (GPCR ligand panel)” value is given as “robust DMR signals”.
Still for that read-out and setting: then `NCCc1c[nH]cn1` [histamine], with “robust DMR signals”; and `CCCCCCCC/C=C/CCCCCCCC(=O)O` [elaidic acid], with “robust DMR signals”; and “neuropeptide Y: neuropeptide Y receptor agonist”, with “robust DMR signals”.
